For one series, the target named is T1, PPARγ-RXRα heterodimer (Homo sapiens, UniProt P37231).
T1 construct: expressed in transfected cells
T1 sequence (P37231 1-477 isoform P37231-2): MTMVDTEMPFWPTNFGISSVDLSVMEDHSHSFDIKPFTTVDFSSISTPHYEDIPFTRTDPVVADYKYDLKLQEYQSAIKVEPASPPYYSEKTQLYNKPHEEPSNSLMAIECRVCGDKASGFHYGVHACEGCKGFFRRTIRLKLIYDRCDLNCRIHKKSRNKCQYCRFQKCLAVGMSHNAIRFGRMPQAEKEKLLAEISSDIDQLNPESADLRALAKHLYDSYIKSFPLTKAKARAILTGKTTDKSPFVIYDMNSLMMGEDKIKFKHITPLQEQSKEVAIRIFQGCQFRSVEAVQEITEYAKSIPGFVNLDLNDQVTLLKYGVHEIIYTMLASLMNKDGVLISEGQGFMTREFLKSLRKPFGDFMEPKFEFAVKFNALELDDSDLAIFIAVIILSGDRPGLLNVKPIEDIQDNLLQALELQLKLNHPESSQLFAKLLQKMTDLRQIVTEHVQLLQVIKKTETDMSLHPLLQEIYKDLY
T1 sequence (P19793 1-462 partner): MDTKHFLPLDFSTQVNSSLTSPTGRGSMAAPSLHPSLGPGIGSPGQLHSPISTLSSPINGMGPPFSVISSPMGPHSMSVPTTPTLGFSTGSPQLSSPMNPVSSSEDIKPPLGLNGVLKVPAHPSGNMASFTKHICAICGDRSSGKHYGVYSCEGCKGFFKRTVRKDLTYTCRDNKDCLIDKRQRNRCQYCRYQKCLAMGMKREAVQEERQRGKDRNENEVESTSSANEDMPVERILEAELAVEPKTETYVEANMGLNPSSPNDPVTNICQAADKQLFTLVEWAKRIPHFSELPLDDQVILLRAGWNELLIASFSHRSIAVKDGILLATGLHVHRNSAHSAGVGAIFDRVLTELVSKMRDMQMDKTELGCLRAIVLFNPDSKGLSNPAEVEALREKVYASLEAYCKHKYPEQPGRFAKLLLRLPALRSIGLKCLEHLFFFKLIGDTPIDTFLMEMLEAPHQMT
Description: PPARγ-RXRα heterodimer ligand activity (luciferase reporter, PPARγ:RXRα:4ERPP/CHO-K1 cells). The format is cell-based. The note with it: concentration for 50% of maximum fold induction of luciferase, 48 hrs. As to the method: (PPARγ-RXRα Heterodimer Ligand Activity)
PPARγ:RXRα:4ERPP/CHO-K1 cells obtained in Reference Example 8a were cultured in HAM F12 medium (manufactured by NISSUI SEIYAKU) containing 10% fetal bovine serum [manufactured by Life Technologies, Inc., USA], seeded in a 96-well white plate [manufactured by Corning Coster Corporation, USA] at the density of 2×10^4 cells/well and cultured in a CO2 gas incubator at 37° C. overnight.
After washing the 96-well white plate with PBS (Phosphate-buffered saline), 90 μl of HAM F12 medium containing 0.1% fatty acid-free bovine serum albumin (BSA) and 10 μl of test compound were added, and the cells were cultured in a CO2 gas incubator at 37° C. for 48 hrs. The medium was removed and 40 μl of PicaGene 7.5 (manufactured by Wako Pure Chemical Industries, Ltd.) was added. After stirring, the luciferase activity was determined using Lumistar [manufactured by BMG Labtechnologies GmbH, Germany].
The fold induction was calculated from the luciferase activity of each test compound when the luciferase activity of the non-treatment group is taken as 1. The values of the test compound concentration and the fold induction were analyzed using PRISM 2.01 (produced by GraphPad Software Inc. USA) to calculate the EC50 values, the effective concentration of a test compound for 50% of the maximum fold induction.
Introduction of Human PPARγ- and RXRα-Expression Plasmid and Reporter Plasmid into CHO-K1 Cell and Establishment of Expressed Cell
After a CHO-K1 cell cultured in a tissue culture flask (750 ml) (produced by Corning Costar Corporation, USA) containing HAM F12 medium (produced by NISSUI SEIYAKU) supplemented with 10% fetal bovine serum (produced by Life Technologies, Inc., USA) was scraped by treating with 0.5 g/L trypsin-0.2 g/L EDTA (ethylenediaminetetraacetic acid) (produced by Life Technologies, Inc., USA), the cell was washed with PBS (phosphate-buffered saline) (produced by Life Technologies, Inc., USA), centrifuged (1000 rpm, 5 minutes), and then suspended in PBS. Subsequently, a DNA was introduced into the cell under the conditions shown below using GENE PULSER (produced by Bio-Rad Laboratories, USA).
Namely, to a cuvette having a 0.4 cm gap, added were 8×10^6 cells and 10 μg of plasmid pVgRXR2-hPPARγ obtained in Reference Example 7a and 10 μg of reporter plasmid pGL3-4ERPP-TK neo obtained in Reference Example 4a, which was subjected to electroporation at the voltage of 0.25 kV under the capacitance of 960 μF. Subsequently, the cell was transferred into a HAM F12 medium containing 10% fetal bovine serum and cultured for 24 hours and then the cell was scraped again and centrifuged, and then suspended in HAM F12 medium containing 10% fetal bovine serum supplemented with 500 μg/ml of GENETICIN, (produced by Life Technologies, Inc., USA) and 250 μg /ml of ZEOCIN (produced by Invitrogen, USA). The obtained suspension was diluted to the density of 10^4 cells/ml and inoculated to a 96-well plate (produced by Corning Costar Corporation, USA), which was cultured in a CO2 gas incubator at 37° C., whereby obtaining a GENETICIN- and ZEOCIN-resistant transformant.
Subsequently, after the transformant cell line thus obtained was cultured in a 24-well plate (produced by Corning Costar Corporation, USA), selected was a cell line in which the luciferase was expressed and induced, i.e., PPARγ:RXRα:4ERPP/CHO-K1 cell by the addition of 10 μM pioglitazone hydrochloride.

In series [1] the test system is KKA^y mice. Description: Hypoglycemic and hypolipidemic (hypotriglyceridemic) actions in mice. The format is in vivo. The following applies: Mus musculus, po, 96 h, 0.01% in powdery diet, four days. As to the method:
Hypoglycemic and Hypolipidemic (Hypotriglyceridemic) Actions in Mice
Test compounds were mixed in a powdery diet (CE-2, Japan Clea) at the concentration of 0.01%, and freely given to KKA^y mice (11 to 12 weeks old, 5 mice per group), a model of type 2 diabetes mellitus, for four days. During this period, water was given freely. Blood was sampled from orbital venous plexus, and glucose and triglyceride levels in plasma separated from the blood were determined enzymatically using L type Wako Glu2 (Wako Pure Chemical Industries, Ltd.) or L type Wako TG.H (Wako Pure Chemical Industries, Ltd.), respectively.
In the Table, “hypoglycemic action (%)” represents a percent reduction (%) of the blood glucose level in the treatment group when the blood glucose level in the non-treatment group is taken as 100%. In addition, “hypolipidemic action (%)” represents a percent reduction (%) of the blood triglyceride level in the treatment group when the blood triglyceride level in the non-treatment group is taken as 100%.

Series [2] deals with KKA^y mice. Description: Total cholesterol lowering action and plasma anti-arteriosclerosis index-enhancing action in mice. The format is in vivo. The note with it: Mus musculus, po, 96 h, 0.01% in powdery diet, four days; for change in vivo at 0.01 % in diet: percent increase of index [(HDL cholesterol/total cholesterol)×100] vs non-treatment group (100%); for inhibition in vivo at 0.01 % in diet: percent reduction of total cholesterol level vs non-treatment group (100%). As to the method: Total Cholesterol Lowering Action and Plasma Anti-Arteriosclerosis Index-Enhancing Action in Mice
Test compounds were mixed in a powdery diet (CE-2, Japan Clea concentration of 0.01%, and freely given to KKA^y mice (11 to 12 weeks old, 5 mice per group), a model of type 2 diabetes mellitus, for four days. During this period, water was given freely. Blood was sampled from orbital venous plexus, and components in plasma separated from the blood were determined. Total cholesterol levels were determined using L type Wako Cholesterol (Wako Pure Chemical Industries, Ltd.). Precipitation reagent for HDL cholesterol was added to a part of the plasma to precipitate non-HDL lipoprotein, and cholesterol (HDL cholesterol) in the resulting supernatant was determined. The plasma anti-arteriosclerosis index [(HDL cholesterol/total cholesterol)×100] was calculated using these cholesterol levels.
In the Table, “total cholesterol lowering action (%)” represents a percent reduction (%) of the total cholesterol level in the treatment group when the total cholesterol level in the non-treatment group is taken as 100%. In addition, “plasma anti-arteriosclerosis index-enhancing action (%)” represents a percent increase (%) of the plasma anti-arteriosclerosis index in the treatment group when the plasma anti-arteriosclerosis index in the non-treatment group is taken as 100%.

Setting [3] is: percent reduction of blood glucose level vs non-treatment group (100%), read-out: Hypoglycemic action (%).
Setting [4] is: percent reduction of blood triglyceride level vs non-treatment group (100%), read-out: Hypolipidemic action (%).

`Cc1oc(-c2ccccc2)nc1COc1ccc(Cc2nc(CCC(=O)O)c(-c3ccccc3)s2)cc1` [Example 8, 3-[2-[4-(5-methyl-2-phenyl-4-oxazolylmethoxy)benzyl]-5-phenyl-4-thiazolyl]propionic acid] displayed a melting point of 119 to 120 °C. The compound further yielded a 50% effective concentration (EC50) at PPARγ-RXRα heterodimer of 16 nM. Besides, the inhibition in vivo at 0.01 % in diet with KKA^y mice [1] (setting [3]) stood at 43%. Also, the inhibition in vivo at 0.01 % in diet in the series with KKA^y mice [1] (setting [4]) was determined as 56%. Further, in the series with KKA^y mice [2], the change in vivo at 0.01 % in diet was 11% and the inhibition in vivo at 0.01 % in diet worked out at 17%.

`Cc1oc(-c2ccccc2)nc1COc1ccc(COc2nn(Cc3ccccc3)cc2CC(=O)O)cn1` [Example 40, [1-benzyl-3-[6-(5-methyl-2-phenyl-4-oxazolylmethoxy)-3-pyridylmethoxy]-1H-pyrazol-4-yl]acetic acid] gave a melting point of 87 to 88 °C. In addition, the inhibition in vivo at 0.01 % in diet with KKA^y mice [1] (setting [3]) came to 52%. The inhibition in vivo at 0.01 % in diet in the series with KKA^y mice [1] (setting [4]) was found to be 76%. Moreover, in the series with KKA^y mice [2], the change in vivo at 0.01 % in diet came to 22% and the inhibition in vivo at 0.01 % in diet is 13%.

The compound `Cc1oc(-c2ccccc2)nc1COc1ccc(CCc2oc(-c3ccccc3)nc2CC(=O)O)cc1` [Example 64, [5-[2-[4-(5-methyl-2-phenyl-4-oxazolyl)methoxyphenyl]ethyl]-2-phenyl-4-oxazolyl]acetic acid] registered a melting point of 180 to 181 °C. This compound returned a concentration for a half-maximal effect (EC50) at PPARγ-RXRα heterodimer of 6.9 nM.

In the case of `Cc1oc(-c2ccccc2)nc1COc1ccc(Cc2nc(CCC(=O)O)c(-c3ccccc3)o2)cc1` [Example 6, 3-[2-[4-(5-methyl-2-phenyl-4-oxazolylmethoxy)benzyl]-5-phenyl-4-oxazolyl]propionic acid], the melting point was 136 to 137 °C. For the same compound, the response on PPARγ-RXRα heterodimer was half-maximal at 3.6 nM (EC50). In the series on KKA^y mice [1] (setting [3]), the inhibition in vivo at 0.01 % in diet stood at 46%. Besides, in the series on KKA^y mice [1] (setting [4]), the inhibition in vivo at 0.01 % in diet stood at 62%. In the series on KKA^y mice [2], the change in vivo at 0.01 % in diet was found to be 17% and the inhibition in vivo at 0.01 % in diet worked out at 27%.

Regarding `Cc1oc(-c2ccco2)nc1COc1ccc(COc2nn(C)cc2CC(=O)O)cn1` [Example 38, [3-[6-[2-(2-furyl)-5-methyl-4-oxazolylmethoxy]-3-pyridylmethoxy]-1-methyl-1H-pyrazol-4-yl]acetic acid], the melting point fell in the range of 155 to 156 °C. In addition, the inhibition in vivo at 0.01 % in diet in the series with KKA^y mice [1] (setting [3]) was found to be 47%. Moreover, the inhibition in vivo at 0.01 % in diet in the series on KKA^y mice [1] (setting [4]) stood at 36%. Further, in the series with KKA^y mice [2], the change in vivo at 0.01 % in diet was 12% and the inhibition in vivo at 0.01 % in diet is 12%.

For `Cc1oc(-c2ccccc2)nc1COc1ccc(Cc2nc(-c3ccccc3)c(CCC(=O)O)[nH]2)cc1` [Example 4, 3-[2-[4-(5-methyl-2-phenyl-4-oxazolylmethoxy)benzyl]-4-phenyl-1H-imidazol-5-yl]propionic acid], the melting point fell in the range of 193 to 196 °C. A half-maximal effect at PPARγ-RXRα heterodimer (EC50) was put at 16 nM.

In the case of `Cc1oc(-c2ccccc2)nc1COc1ccc(COc2nn(C)cc2CC(=O)O)cn1` [Example 26, [1-methyl-3-[6-(5-methyl-2-phenyl-4-oxazolylmethoxy)-3-pyridylmethoxy]-1H-pyrazol-4-yl]acetic acid], the melting point was 139 to 140 °C. On PPARγ-RXRα heterodimer, this compound showed an EC50 of 37 nM. Besides, the inhibition in vivo at 0.01 % in diet in the series on KKA^y mice [1] (setting [3]) came out at 56%. In the series on KKA^y mice [1] (setting [4]), the inhibition in vivo at 0.01 % in diet was 53%. Also, in the series with KKA^y mice [2], the change in vivo at 0.01 % in diet worked out at 14% and the inhibition in vivo at 0.01 % in diet turned out to be 14%.

For the compound `Cc1oc(-c2ccccc2)nc1COc1ccc(Cc2nc(-c3ccccc3)c(CCC(=O)O)o2)cc1` [Example 2, 3-[2-[4-(5-methyl-2-phenyl-4-oxazolylmethoxy)benzyl]-4-phenyl-5-oxazolyl]propionic acid], the melting point was 142 to 143 °C. The compound also registered a 50% effective concentration (EC50) at PPARγ-RXRα heterodimer of 3.7 nM. Besides, the inhibition in vivo at 0.01 % in diet in the series on KKA^y mice [1] (setting [3]) came to 45%. Also, in the series with KKA^y mice [1] (setting [4]), the inhibition in vivo at 0.01 % in diet came to 52%.

`Cc1oc(-c2ccccc2)nc1COc1ccc(COc2nn(-c3ccccc3)cc2CC(=O)O)cc1` [Example 50, [3-[4-(5-methyl-2-phenyl-4-oxazolylmethoxy)benzyloxy]-1-phenyl-1H-pyrazol-4-yl]acetic acid]: the melting point was 151 to 152 °C. For the same compound, on PPARγ-RXRα heterodimer, the EC50 was found to be 3.9 nM. Besides, the inhibition in vivo at 0.01 % in diet in the series with KKA^y mice [1] (setting [3]) stood at 46%. In addition, the inhibition in vivo at 0.01 % in diet in the series on KKA^y mice [1] (setting [4]) turned out to be 81%. In addition, in the series on KKA^y mice [2], the change in vivo at 0.01 % in diet was 12% and the inhibition in vivo at 0.01 % in diet amounted to 8%.

The values above are taken from US7241785B2, “Five-membered heterocyclic alkanoic acid derivative” (Takeda Pharmaceutical Company Limited, priority 2001, dated 2007).
